According to patent publication US20260002124A1, “ENHANCING NEURONAL DIFFERENTIATION OF VENTRAL MIDBRAIN NEURAL PROGENITOR CELLS” (Novo Nordisk A/S, priority 2022, published 2026):
“And” between values parts separate entries of the source, which are not always exact repeats. Identical values can stand only once.

What was measured:
Format in all cases: cell-based, human
[1] = system: ventral midbrain floor plate NSCs; assay: Immunofluorescence staining after late administration and extended differentiation (DIV40); details: late administration; IF staining, extended differentiation DIV40
Procedure: (§1) Following compound administration and flow cytometry analysis performed in Figure, all groups were differentiated for a further 11 days in vitro and then were fixed in 4% paraformaldehyde and stained with DAPI to identify all cell nuclei and primary antibodies against SOX2 (1:300), Ki-67 (1:250), LMX1A (1:1000), tyrosine hydroxylase (TH; 1:500) and COL1A1 (1:300) followed by fluorescently labelled secondary antibodies. Images were acquired on an Olympus IX81 microscope using CellSens software. The immunofluorescence (IF) staining confirmed the flow cytometry results with extended differentiation showing that treatment with a NOTCHi alone reduced, compared to untreated controls, the amount of NSCs identified by SOX2 (FIG. 12A-D) and proliferative cells identified by KI67 (FIG. 13B,D) while maintaining the amount of neuronal cells identified by INA (FIG. 13A,C).
(§2) Cells were fixed in 4% paraformaldehyde (Alfa Aesar) for 10 minutes at room temperature. Unspecific antibody binding was blocked by incubating cells with PADT buffer; phosphate-buffered saline (PBS) without Ca2+ and Mg2+ (Gibco) with 0.02% sodium azide solution (Ampliqon), 0.5% Triton X-100 (Sigma), and 5% Donkey serum (Jackson Labs) for 30 minutes, followed by overnight incubation with primary antibodies (see Table X) at 4° C. The cells were washed 3 times with PBS without Ca2+ and Mg2+, blocked with PADT buffer for 15 minutes, and incubated with fluorophore-conjugated secondary antibodies (see Table X) for 2 hours at room temperature, protected from light. The cells were then counterstained with DAPI (10 μg/mL) for 5 minutes at room temperature, washed 3 times with PBS without Ca2+ and Mg2+, and stored at 4° C. in PBS without Ca2+ and Mg2+ supplemented with 0.02% sodium azide. Images were captured with a Zeiss Axio Observer microscope equipped with an Axiocam 512 camera and ZEN 3.2 (Pro) software (Zeiss).

VM NPCs = assay: FCM profile of VM neural cells at DIV22 after earlier NOTCHi treatment DIV16-22
Procedure: (§3) hESCs were differentiated to ventral midbrain neurons according to an established protocol (Nolbrant et al., 2017; Kirkeby et al., 2017). In brief, hESC were grown to 70-90% confluency, then disassociated with 0.5 mM EDTA. The cells were seeded at 10^4 cells/cm^2 in cell culture flasks or plates coated with human laminin-111 (1.2 μg/cm^2; BioLamina) and immediately put into contact with differentiation media. The cells were exposed to N2-based media from days in vitro (DIV) 0-8; 50% DMEM/F12+Glutamax (Gibco), 50% Neurobasal (Gibco), 1% N2 supplement CTS (Thermo Fisher Scientific), 5% GlutaMAX (Thermo Fisher Scientific), 0.2% P-S (Thermo Fisher Scientific) and supplemented with SMAD inhibitors SB431542 (10 μM; Miltenyi Biotec), Noggin (100 ng/mL; Miltenyi Biotec) for neural induction, Sonic Hedgehog C24II (SHH; 500 ng/mL; Miltenyi Biotec) for ventral fate, GSK3B inhibitor CHIR99021 (CHIR; 0.5-0.6 μM; Miltenyi Biotec) to promote caudalization. N2-based media was supplemented with fibroblast growth factor 8b (FGF8b; 100 ng/mL; Miltenyi Biotec) from DIV9-11. At DIV11, the cells were dissociated with accutase (Thermo Fisher Scientific) and seeded at 0.8×10^6 cells/[…] in a cell culture flask or plate coated with human laminin-111 (1.2 μg/cm^2) in DIV11-16 media (Neurobasal, 2% B27 supplement without vitamin A CTS (Thermo Fisher Scientific), 5% GlutaMAX, 0.2% P-S and supplemented with FGF8b (100 ng/mL), L-ascorbic acid (AA; 200 μM; Sigma), human Brain Derived Neurotrophic Factor (BDNF; 20 ng/mL; Miltenyi Biotec)) supplemented with Y-27632 (Miltenyi Biotec) at 10 μM. At day in vitro (DIV) 16, the cells were dissociated with accutase and either cryopreserved, or re-seeded in cell culture flasks/plates coated with poly-L-ornithine (0.002%) and Laminin-521 (1.5 μg/cm^2) in B27 media supplemented with BDNF (20 ng/mL), GDNF (20 ng/mL), L-ascorbic acid (200 μM), dcAMP (500 μM), DAPT (10 μM), and Y-27632 (10 μM) for extended in vitro culture allowing further differentiation and maturation of ventral midbrain neural stem cells into neurons.
(§4) Ventral midbrain dopaminergic (vmDA) progenitor cells were generated from hESCs in 2D in vitro culture as described in Example 1 and using reagents described in Table 1. At various days after initiating the differentiation the cell culture was dissociated into a single cell suspension using Accutase, counted on a NucleoCounter NC-200 and collected in N2 media (CTS™ Neurobasal™ medium supplemented with 1% CTS™ N-2 supplement). Dead cells were labelled using a LIVE/DEAD™ Fixable Near-IR Dead Cell Stain Kit. The cells were then resuspended in B27 media (CTS™ Neurobasal™ medium supplemented with 1% B-27™ supplement without vitamin A, 2 mM GSutaMAX™, 60 U/mL Penicillin-Streptomycin, 10 μM ROCK inhibitor). Cells were then fixed and permeabilized using the BD Transcription Factor Buffer Set (BD Biosciences) according to the manufacturer's instructions. The fixed cells were then stained with fluorescently conjugated antibodies, and the samples acquired on a BD LSR Fortessa or B FACSymphony (BD Biosciences). The fcs files were exported and analyzed in FlowJo 10.5.03.
(§5) To determine whether a cell was considered positive in its protein expression of a marker, gates were set as routinely done in the field at the edge of the fluorescent signal of a negative control sample. Examples of negative control samples used included unstained controls, fluorescence minus one (FMO) controls and most preferably biological negative control samples; all cells present above these threshold gates when experimental samples were run were considered positive. Antibodies: FOXA2 (1:320, Miltenyi), OTX2 (1:320, Miltenyi), SOX2 (1:40, B), LMXTA (1:2500, Novo Nordisk production), […] (1:40, AtlasAntibodies), ASCL1 (1:2500, Mitlenyi), INA (1:3000, AtlasAntibodies). […]

[2] = system: ventral midbrain floor plate NSCs; assay: Early in vitro administration of MEKi and/or NOTCHi (DIV16-22), flow cytometry marker expression
Procedure: as §3, §4, §5

[3] = system: ventral midbrain floor plate NSCs; assay: Late in vitro administration of MEKi and/or NOTCHi (DIV22-29), FCM/ICC marker expression
Procedure: as §3, §4, §5

[4] = system: ventral midbrain floor plate NSCs; assay: Immunofluorescence staining after early administration and extended differentiation (DIV35); details: early administration; IF staining, extended differentiation DIV35
Procedure: as §1, with “FIGS. 2 and 3,” for “Figure,”, “(1:3000), INA (1:200),” for “(1:1000),”, “results of FIG. 3” for “results”, “4A-D)” for “12A-D)”, “5B,D)” for “13B,D)”, “5A,C).” for “13A,C).”
as §2

[5] = DIV22 after NOTCHi (DAPT) DIV16-22 every 48-72 hrs, flow cytometry, replicates #1-#11
[6] = DIV22 after NOTCHi DIV16-22, Mean of #1-#11
[7] = early treatment DIV16-22, % of total viable cells, replicates #1-#4
[8] = early treatment, result in words
[9] = late administration DIV22-29, FCM/ICC, % of total cells, replicates #1-#4
[10] = late administration, result in words

Question: What does the source list for `C[C@H](NC(=O)Cc1cc(F)cc(F)c1)C(=O)NC(C(=O)OC(C)(C)C)c1ccccc1` (stereo partly shown) [NOTCHi]?
Answer: amount of NSCs identified by SOX2 compared to untreated controls [1]: reduced; amount of neuronal cells identified by INA [1]: maintaining; expression of ventral midbrain lineage marker LMX1A [1]: did not prevent; formation of dopamine neurons (TH) [1]: did not prevent; proliferative cells identified by KI67 compared to untreated controls [1]: reduced; proportion of stromal COL1A1 cells compared to control untreated cultures [1]: dramatically reduced; ASCL1 expressing cells (VM NPCs; [5]): 41.1% and 41.7% and 45.8% and 16.2% and 17.3% and 25.6% and 50.4% and 57.1% and 40.5% and 51.8% and 36.0%; FOXA2 expressing cells (VM NPCs; [5]): 69.7% and 76.2% and 82.7% and 78.0% and 75.5% and 35.2% and 85.4% and 98.2% and 82.1% and 94.9% and 67.6%; INA expressing cells (VM NPCs; [5]): 30.5% and 19.2% and 22.4% and 13.8% and 13.3% and 32.0% and 23.6% and 34.2% and 19% and 45.6% and 18.3%; INA+/SOX2− cells (VM NPCs; [5]): 13.8% and 4.7% and 6.2% and 2.6% and 5.0% and 6.0% and 7.3% and 13.6% and 5.7% and 20.1% and 7.0%; Ki67 expressing cells (VM NPCs; [5]): 6.4% and 8.1% and 9.7% and 7.8% and 5.2% and 19.8% and 5.9% and 4.8% and 6.0% and 6.6% and 6.1%; SOX2 expressing cells (VM NPCs; [5]): 70.9% and 86.3% and 88.3% and 77.2% and 78.5% and 76.4% and 72% and 70.5% and 64.7% and 65.7% and 69.5%; ASCL1 expressing cells, Mean (VM NPCs; [6]): 38.5%; FOXA2 expressing cells, Mean (VM NPCs; [6]): 76.9%; INA expressing cells, Mean (VM NPCs; [6]): 24.7%; INA+/SOX2− cells, Mean (VM NPCs; [6]): 8.4%; Ki67 expressing cells, Mean (VM NPCs; [6]): 7.9%; SOX2 expressing cells, Mean (VM NPCs; [6]): 74.5%; FOXA2 expressing cells [2, 7]: 85.3% and 72.4% and 93.2%; Ki67 expressing cells (proliferative marker) [2, 7]: 16.6% and 18.6% and 17.7%; LMX1A expressing cells [2, 7]: 88.4% and 77.2% and 94.5%; SOX2 expressing cells (NSC marker) [2, 7]: 59.6% and 57.3% and 65.7%; expression of NSC marker SOX2 compared to controls [2, 8]: downregulated; expression of proliferative marker KI67 compared to controls [2, 8]: downregulated; FOXA2 expressing cells [3, 9]: 81.8% and 90.2% and 68% and 92.2%; INA expressing cells (neuronal marker) [3, 9]: 35.4% and 61.5% and 74.1%; Ki67 expressing cells (proliferative marker) [3, 9]: 21.3% and 1.65% and 3.87% and 2.98%; LMX1A expressing cells [3, 9]: 95.4% and 75.4% and 91.8%; SOX2 expressing cells (NSC marker) [3, 9]: 62.1% and 21.9% and 63.7% and 43.6%; expression of NSC marker SOX2 compared to controls [3, 10]: downregulated; expression of proliferative marker KI67 compared to controls [3, 10]: downregulated; amount of NSCs identified by SOX2 compared to untreated controls [4]: reduced; amount of neuronal cells identified by INA [4]: maintaining; expression of ventral midbrain lineage marker LMX1A [4]: did not prevent; formation of dopamine neurons (TH) [4]: did not prevent; proliferative cells identified by KI67 compared to untreated controls [4]: reduced; proportion of stromal COL1A1 cells compared to control untreated cultures [4]: dramatically reduced
